# Assay results reported in patent publication US20190224186A1, “TREATMENT OF MULTIPLE SCLEROSIS WITH CHS-131” (InteKrin Therapeutics, Inc., priority 2016, published 2019).
# Values joined by “and” are separate entries in the source; they are usually repeats but may differ in a detail not shown here. Equal entries are not always repeated.
# Key:
# [1] = test system: MS patients in the relapsing and remitting course of the disease (RRMS); test: Phase 2 trial: Expanded Disability Status Scale (EDSS) score; type: in vivo, human
# Source text: Several methods are used to diagnose and determine the impact of multiple sclerosis on patients. The McDonald criteria are used to diagnose multiple sclerosis on clinical grounds and MRI lesions consistent with MS. The Expanded Disability Status Scale (EDSS) quantifies disability in eight Functional Systems (FS) and allows neurologists to assign a Functional System Score (FSS) in each of these. The Multiple Sclerosis Functional Composite (MSFC) is a three-part, standardized, quantitative, assessment of function. The three components of the MSFC measure leg function/ambulation, arm/hand function, and cognitive function. The EDSS and MSFC scores are useful to determine if a drug improves or prevents loss of cognitive or physical function of a patient with MS. A drug is said to reduce MS-related dysfunction if it reduces a patient's EDSS or MSFC score. The study enrolled MS patients in the relapsing and remitting course of the disease (RRMS) who had been diagnosed within ≤3 years of enrollment. Patients had to be treatment-naïve, have ≥1 gadolinium-positive lesion within 12 months of enrollment, and have an Expanded Disability Status Score (EDSS) of 0-6 at screening. Part 1 was a double-blind, parallel-group, 6-month study. Patients were randomized to oral CHS-131 at 3 mg or 1 mg or placebo in a 1:1:1 ratio at 21 sites in Russia. Monthly MRIs were read in a blinded fashion at the Buffalo Neuroimaging and Analysis Center, Buffalo, N.Y., USA. Part 2 is an open label, 6-month, safety extension study, in which all subjects transition to 1 mg CHS-131 daily, to evaluate clinical response, CE lesions on MM, and safety. The EDSS scores are reported for the full analysis population in the table below.
# [2] = test system: MS patients in the relapsing and remitting course of the disease (RRMS); test: Phase 2 trial: change in cortical (neocortical) volume by MRI, SIENAX-MTP3; type: in vivo, human; conditions: 1 mg
# [3] = test system: MS patients in the relapsing and remitting course of the disease (RRMS); test: Calculated dose response curve: expected new gadolinium CE T1-weighted lesions over six months; design: species or system human
# Procedure: To test the hypothesis that women will benefit from higher doses of CHS-131 and identify efficacious doses of CHS-131 for women, a dose response curve was calculated. The dose response curve was calculated to determine the efficacy of various daily dose of CHS-131 for males and females. The dose-response curve is assumed to have the following form: RDose=α exp β−Dose+γ Parameter β was determined from negative binomial regression using the observed total new GAD CE lesions 6 Months and numeric dosage of 0, 1, 3 mg. Parameters α and γ were determined using least-squares method on the observed mean total new GAD CE lesions 6 Months. Based on the clinical trial data, we calculated the expected number of new gadolinium CE T1-weighted lesions that would be seen over six months on doses of CHS-131 ranging from 1 to 10 mg per day. Table 7 below provides a tabular report of the percent reduction compared to the number of lesions at a 0 mg dose.
smiles,measurement,setting,value
O=S(=O)(Nc1cc(Cl)c(Oc2cnc3ccccc3c2)c(Cl)c1)c1ccc(Cl)cc1Cl [CHS-131],Month 3 EDSS % change from baseline,[1]; 1 mg,−0.49%
same,Month 6 EDSS % change from baseline,[1]; 1 mg,−2.94%
same,Month 3 EDSS Mean (SD),"[1]; 1 mg, n=74",2.03 (0.961)
same,Month 6 EDSS Mean (SD),"[1]; 1 mg, n=74",1.98 (0.974)
same,Month 3 EDSS % change from baseline,[1]; 3 mg,−0.46%
same,Month 6 EDSS % change from baseline,[1]; 3 mg,−4.59%
same,Month 6 EDSS Mean (SD),"[1]; 3 mg, n=73",2.08 (0.846)
same,Month 3 EDSS Mean (SD),"[1]; 3 mg, n=74",2.17 (0.945)
same,reduction in the loss of cortical volume,[2],No reduction in the loss of cortical volume was observed
same,"Cortical volume, percent change from baseline to 6 month, Mean",[2]; n=50,−1.350%
same,"Cortical volume, percent change from baseline to 6 month, Median",[2]; n=50,−1.428%
same,"Cortical volume, percent change from baseline to 3 month, Mean",[2]; n=57,−0.706%
same,"Cortical volume, percent change from baseline to 3 month, Median",[2]; n=57,−0.746%
same,Expected # of Lesions,"[3]; Females, 1 mg",7.14
same,Expected Percent Change from Placebo,"[3]; Females, 1 mg",−25.9%
same,Expected Percent Reduction vs 0 mg dose,"[3]; Females, 1 mg",13.98%
same,Expected # of Lesions,"[3]; Females, 2 mg",6.15
same,Expected Percent Change from Placebo,"[3]; Females, 2 mg",−36.0%
same,Expected Percent Reduction vs 0 mg dose,"[3]; Females, 2 mg",25.90%
same,Expected # of Lesions,"[3]; Females, 3 mg",5.31
same,Expected Percent Change from Placebo,"[3]; Females, 3 mg",−44.7%
same,Expected Percent Reduction vs 0 mg dose,"[3]; Females, 3 mg",36.02%
same,Expected # of Lesions,"[3]; Females, 4 mg",4.59
same,Expected Percent Change from Placebo,"[3]; Females, 4 mg",−52.1%
same,Expected Percent Reduction vs 0 mg dose,"[3]; Females, 4 mg",44.70%
same,Expected # of Lesions,"[3]; Females, 5 mg",3.97
same,Expected Percent Change from Placebo,"[3]; Females, 5 mg",−58.5%
same,Expected Percent Reduction vs 0 mg dose,"[3]; Females, 5 mg",52% and 52.17%
same,Expected # of Lesions,"[3]; Females, 6 mg",3.45
same,Expected Percent Change from Placebo,"[3]; Females, 6 mg",−63.9%
same,Expected Percent Reduction vs 0 mg dose,"[3]; Females, 6 mg",58.43%
same,Expected # of Lesions,"[3]; Females, 7 mg",3.00
same,Expected Percent Change from Placebo,"[3]; Females, 7 mg",−68.5%
same,Expected Percent Reduction vs 0 mg dose,"[3]; Females, 7 mg",63.86%
same,Expected # of Lesions,"[3]; Females, 8 mg",2.62
same,Expected Percent Change from Placebo,"[3]; Females, 8 mg",−72.4%
same,Expected Percent Reduction vs 0 mg dose,"[3]; Females, 8 mg",68.43%
same,Expected # of Lesions,"[3]; Females, 9 mg",2.29
same,Expected Percent Change from Placebo,"[3]; Females, 9 mg",−75.8%
same,Expected Percent Reduction vs 0 mg dose,"[3]; Females, 9 mg",72.41%
same,Expected # of Lesions,"[3]; Females, 10 mg",2.01
same,Expected Percent Change from Placebo,"[3]; Females, 10 mg",−100.0%
same,Expected Percent Reduction vs 0 mg dose,"[3]; Females, 10 mg",75.78%
same,Expected # of Lesions,"[3]; Males & Females, 1 mg",6.79
same,Expected Percent Change from Placebo,"[3]; Males & Females, 1 mg",−31.4%
same,Expected Percent Reduction vs 0 mg dose,"[3]; Males & Females, 1 mg",17.20%
same,Expected # of Lesions,"[3]; Males & Females, 2 mg",5.63
same,Expected Percent Change from Placebo,"[3]; Males & Females, 2 mg",−43.0%
same,Expected Percent Reduction vs 0 mg dose,"[3]; Males & Females, 2 mg",31.34%
same,Expected # of Lesions,"[3]; Males & Females, 3 mg",4.67
same,Expected Percent Change from Placebo,"[3]; Males & Females, 3 mg",−52.6%
same,Expected Percent Reduction vs 0 mg dose,"[3]; Males & Females, 3 mg",43.05%
same,Expected # of Lesions,"[3]; Males & Females, 4 mg",3.89
same,Expected Percent Change from Placebo,"[3]; Males & Females, 4 mg",−60.5%
same,Expected Percent Reduction vs 0 mg dose,"[3]; Males & Females, 4 mg",52.56%
same,Expected # of Lesions,"[3]; Males & Females, 5 mg",3.24
same,Expected Percent Change from Placebo,"[3]; Males & Females, 5 mg",−66.9%
same,Expected Percent Reduction vs 0 mg dose,"[3]; Males & Females, 5 mg",60.49%
same,Expected # of Lesions,"[3]; Males & Females, 6 mg",2.71
same,Expected Percent Change from Placebo,"[3]; Males & Females, 6 mg",−72.3%
same,Expected Percent Reduction vs 0 mg dose,"[3]; Males & Females, 6 mg",66.95%
same,Expected # of Lesions,"[3]; Males & Females, 7 mg",2.27
same,Expected Percent Change from Placebo,"[3]; Males & Females, 7 mg",−76.6%
same,Expected Percent Reduction vs 0 mg dose,"[3]; Males & Females, 7 mg",72.32%
same,Expected # of Lesions,"[3]; Males & Females, 8 mg",1.92
same,Expected Percent Change from Placebo,"[3]; Males & Females, 8 mg",−80.2%
same,Expected Percent Reduction vs 0 mg dose,"[3]; Males & Females, 8 mg",76.59%
same,Expected # of Lesions,"[3]; Males & Females, 9 mg",1.62
same,Expected Percent Change from Placebo,"[3]; Males & Females, 9 mg",−83.2%
same,Expected Percent Reduction vs 0 mg dose,"[3]; Males & Females, 9 mg",80.24%
same,Expected # of Lesions,"[3]; Males & Females, 10 mg",1.38
same,Expected Percent Change from Placebo,"[3]; Males & Females, 10 mg",−100.0%
same,Expected Percent Reduction vs 0 mg dose,"[3]; Males & Females, 10 mg",83.17%
same,Expected # of Lesions,"[3]; Males, 1 mg",6.33
same,Expected Percent Change from Placebo,"[3]; Males, 1 mg",−42.0%
same,Expected Percent Reduction vs 0 mg dose,"[3]; Males, 1 mg",23.73%
same,Expected # of Lesions,"[3]; Males, 2 mg",4.81
same,Expected Percent Change from Placebo,"[3]; Males, 2 mg",−56.1%
same,Expected Percent Reduction vs 0 mg dose,"[3]; Males, 2 mg",42.05%
same,Expected # of Lesions,"[3]; Males, 3 mg",3.64
same,Expected Percent Change from Placebo,"[3]; Males, 3 mg",−67.1%
same,Expected Percent Reduction vs 0 mg dose,"[3]; Males, 3 mg",56% and 56.14%
same,Expected # of Lesions,"[3]; Males, 4 mg",2.73
same,Expected Percent Change from Placebo,"[3]; Males, 4 mg",−75.5%
same,Expected Percent Reduction vs 0 mg dose,"[3]; Males, 4 mg",67.11%
same,Expected # of Lesions,"[3]; Males, 5 mg",2.03
same,Expected Percent Change from Placebo,"[3]; Males, 5 mg",−82.1%
same,Expected Percent Reduction vs 0 mg dose,"[3]; Males, 5 mg",75.54%
same,Expected # of Lesions,"[3]; Males, 6 mg",1.49
same,Expected Percent Change from Placebo,"[3]; Males, 6 mg",−87.1%
same,Expected Percent Reduction vs 0 mg dose,"[3]; Males, 6 mg",82.05%
same,Expected # of Lesions,"[3]; Males, 7 mg",1.07
same,Expected Percent Change from Placebo,"[3]; Males, 7 mg",−91.0%
same,Expected Percent Reduction vs 0 mg dose,"[3]; Males, 7 mg",87.11%
same,Expected # of Lesions,"[3]; Males, 8 mg",0.74
same,Expected Percent Change from Placebo,"[3]; Males, 8 mg",−94.1%
same,Expected Percent Reduction vs 0 mg dose,"[3]; Males, 8 mg",91.08%
same,Expected # of Lesions,"[3]; Males, 9 mg",0.49
same,Expected Percent Change from Placebo,"[3]; Males, 9 mg",−96.4%
same,Expected Percent Reduction vs 0 mg dose,"[3]; Males, 9 mg",94.10%
same,Expected # of Lesions,"[3]; Males, 10 mg",0.30
same,Expected Percent Change from Placebo,"[3]; Males, 10 mg",−100.0%
same,Expected Percent Reduction vs 0 mg dose,"[3]; Males, 10 mg",96.39%
same,reduction in new lesions on the dose response curve in Table 8,"[3]; men, 3 mg per day",67%
same,expected reduction in lesions as compared to placebo (Table 8),"[3]; men, 5 mg per day as printed",67%
same,expected reduction in lesions as compared to placebo (Table 8),"[3]; women, 5 mg per day",56%
